Laboratory results: US6949519B2, “Macrolide solvates” (Sandoz AG, priority 2000, dated 2005)

Experiments:
Type in all cases: physicochemical
[1] = Water content (K. Fischer) and X-ray powder diffraction pattern at room temperature under normal air humidity conditions
Experimental: In the following examples all temperatures are in degree Centigrade and are uncorrected. The X-ray powder diffraction pattern of azithromycin in the form of a monohydrate obtained according to the following example corresponds to that of azithromycin in the form of a monohydrate. […] Water content (% w/w) is determined by the K. Fischer
To a suspension of 20 g of azithromycin in 83 ml of water, HCl is added until dissolution occurs. The solution obtained is filtrated, in order to remove undissolved particles, and the filtrate obtained is added dropwise to 103 ml of water whilst adjusting the pH to 10 to 11 by addition of 20% NaOH at a temperature of ca. 55° C. A solid precipitates, is filtrated off, washed and dried until a water content of 4.0 to 6.5% is achieved. 18.4 g of azithromycin in the form of a monohydrate in crystalline form are obtained. Water content: 6.0% Water content after 2 days at room temperature under normal air humidity conditions: 6.3% Water content after 13 days at room temperature under normal air humidity conditions: 6.3%

[2] = Stability and comparison example: samples set out for 6 weeks at 75% relative humidity at elevated temperature; potency and degradation by HPLC, water by Karl Fischer, X-ray powder diffraction; details: 6 weeks under normal air humidity conditions at elevated temperatures
[3] = as above; details: for Degradation (%) / POTENCY (%): HPLC, anhydrous basis; for POTENCY (%): 75% relative humidity, temperature of 400 (so in the source); for WATER (%): Karl Fischer
Experimental: • 5.3% of water, and • 2.8% of water are set out for 6 weeks to an environment having a relative humidity of 75% at a temperature of 400. Potency (content) of azithromycin, azithromycin degradation and water content in the samples are determined in week 0, week 2, week 4 and week 6. Potency and degradation are determined on azithromycin anhydrous basis by HPLC. The water content is determined by the Karl Fischer method. Results are Obtained • for azithromycin comprising 5.3% of water as set out in TABLE 1 below, • for azithromycin comprising 2.8% of water as set out in TABLE 2 below:
The potency of azithromycin in % of each sample within the corresponding time period is set out in TABLE 1 and TABLE 2 under “Potency (%)”.
The degradation of azithromycin in % of each sample within the corresponding time period is set out in TABLE 1 and TABLE 2 under “Degradation (%).
The water content in % of each sample within the corresponding time period is indicated in TABLE 1 and TABLE 2 under “Water (%)”.

| Structure (SMILES) | Degradation (%) ([3]; week 6, 75% humidity, 40° C.) | POTENCY (%) ([3]; week 0) | WATER (%) ([3]; week 0) | Degradation (%) ([3]; week 2, 75% humidity, 40° C.) | WATER (%) ([3]; week 2, 75% humidity, 40° C.) | Degradation (%) ([3]; week 4, 75% humidity, 40° C.) | WATER (%) ([3]; week 4, 75% humidity, 40° C.) | WATER (%) ([3]; week 6, 75% humidity, 40° C.) | POTENCY (%) ([3]; week 6) | also measured |
| --- | --- | --- | --- | --- | --- | --- | --- | --- | --- | --- |
| CC[C@H]1OC(=O)[C@H](C)[C@@H](O[C@H]2C[C@@](C)(OC)[C@@H](O)[C@H](C)O2)[C@H](C)[C@@H](O[C@@H]2O[C@H](C)C[C@H](N(C)C)[C@H]2O)[C@](C)(O)C[C@@H](C)CN(C)[C@H](C)[C@@H](O)[C@]1(C)O [Example, 9-deoxo-9a-aza-9a-methyl-9a-homoerythromycin A] | – | – | – | – | – | – | – | – | – | Water content ([1]; after 2 days at room temperature under normal air humidity conditions): 6.3%; Water content ([1]; after 13 days at room temperature under normal air humidity conditions): 6.3%; Water content ([1]; as obtained after drying, % w/w, K. Fischer): 6.0%; X-ray diffraction powder pattern ([1]; on day 1, on day 2 and on day 13): corresponds to the X-ray diffraction powder pattern of azithromycin in the form of a monohydrate; Crystallinity and X-ray powder diffraction pattern on storage [2]: maintains its crystallinity and its X-ray powder diffraction pattern; Degradation products on storage [2]: contains substantially no degration products |
| CC[C@H]1OC(=O)[C@H](C)[C@@H](O[C@H]2C[C@@](C)(OC)[C@@H](O)[C@H](C)O2)[C@H](C)[C@@H](O[C@@H]2O[C@H](C)C[C@H](N(C)C)[C@H]2O)[C@](C)(O)C[C@@H](C)CN(C)[C@H](C)[C@@H](O)[C@]1(C)O [azithromycin according to the present invention] [9-deoxo-9a-aza-9a-methyl-9a-homoerythromycin A] | ~0.1% | – | – | – | – | – | – | – | – | Water content compared with week 0 ([3]; 40° C., 75% humidity, within 4 weeks and even 6 weeks): remains substantially the same as in week 0; Time for which the X-ray powder diffraction pattern (crystalline structure) is maintained ([3]; normal air humidity conditions, even at elevated temperatures): at least 2 weeks |
| CC[C@H]1OC(=O)[C@H](C)[C@@H](O[C@H]2C[C@@](C)(OC)[C@@H](O)[C@H](C)O2)[C@H](C)[C@@H](O[C@@H]2O[C@H](C)C[C@H](N(C)C)[C@H]2O)[C@](C)(O)C[C@@H](C)CN(C)[C@H](C)[C@@H](O)[C@]1(C)O [azithromycin comprising 2.8% of water, 9-deoxo-9a-aza-9a-methyl-9a-homoerythromycin A, reference compound] | 6.6% | 99.7% | 2.8% | 2.5% | 2.8% | 6.1% | 3.3% | 3.6% | 91.6% | Degradation (%) ([3]; week 2, 75% humidity, 40° C., listed as azithromycin in the form of a monohydrate having a water content of 2.8% to 3.6%): 2.5%; Degradation (%) ([3]; week 6, 75% humidity, 40° C., listed as azithromycin in the form of a monohydrate having a water content of 2.8% to 3.6%): ~7% |
| CC[C@H]1OC(=O)[C@H](C)[C@@H](O[C@H]2C[C@@](C)(OC)[C@@H](O)[C@H](C)O2)[C@H](C)[C@@H](O[C@@H]2O[C@H](C)C[C@H](N(C)C)[C@H]2O)[C@](C)(O)C[C@@H](C)CN(C)[C@H](C)[C@@H](O)[C@]1(C)O [azithromycin comprising 5.3% of water, 9-deoxo-9a-aza-9a-methyl-9a-homoerythromycin A] | 0.1% | 99.8% | 5.3% | 0.1% | 5.3% | 0.1% | 5.3% | 5.3% | 99.5% | POTENCY (%) ([3]; week 2): 98.9%; POTENCY (%) ([3]; week 4): 99.5% |
